In patent US4632922A, “Oxomorpholinyl dimer and rescue of anthracycline and mitomycin C damage” (The United States of America as represented by the …, priority 1985, dated 1986):
One block for each molecule: values may come before it.

Tests used:
swine skin = test: Skin lesions after intradermal DOX in swine; assay type: in vivo, miniature white swine
Protocol: In order to produce anthracycline induced tissue damage, clinical grade doxorubicin (DOX) hydrochloride was obtained as a representative anthracycline chemical from the Drug Synthesis Branch, Developmental Therapeutics Program, National Cancer Institute. Each vial contained 10 mg DOX hydrochloride and 50 mg lactose which was reconstituted with 5.0 ml sterile 0.9% NaCl solution to give a final drug concentration of 2.0 mg/ml. DHM3 solution was prepared by dissolving 10 mg in ice-cold water which had been purged with N2 gas for 5 minutes. Dissolution was facilitated by brief sonication to give a final concentration of 10 mg/ml. The solution was kept cold (≈4° C.) and protected from air and light.
Female weanling miniature white swine weighing approximately 12 kg were obtained from the Veterinary Resources Branch, National Institutes of Health. The development of this strain of swine has been described previously (Sachs, et al., Transplantation 22:559-567, 1976). Each animal was housed in a 6×4 ft metabolic cage and was fed standard NIH show chow, 1.5 lbs twice daily.
DOX HCl (2.0 mg/ml) was administered intradermally (i.d.) with a 25 gauge needle inserted approximately 4 to 5 mm into the skin. Following the injection of 0.5, 0.75 or 1.0 ml (1.0, 1.5, or 2.0 mg, respectively) DOX solution, the syringe was removed from the hub leaving the needle in place. After the indicated time interval, 1.0 ml (10 mg) DHM3 was injected through the same needle and the needle was then removed. Control sites received 1.0 ml sterile water instead of DHM3. The injection sites were along the mid-lateral aspect of each side of the swine and were 4-5 cm apart (6-8 injection sites per side). One animal was used for a dose experiment where DOX, 0.5 ml/site was injected along one side and 1.0 ml/site was injected along the contralateral side. Fifteen minutes later, DHM3 or water was injected into alternating sites as described above. A second animal received DOX, 0.75 ml/site along both sides. DHM3 or water was injected into alternating sites at times varying from 5 to 120 minutes following DOX administration.
All lesions were measured by a single observer with metric calipers three times weekly for two weeks, followed by weekly measurements thereafter. The areas of skin ulceration and induration were estimated by the product of the cross perpendicular diameters. The total toxicity of DOX-induced skin ulceration was determined by calculating the area under the ulceration-time curve (AUC) in mm^2 -days.
In order to assess the extent of tissue injury following intradermal DOX or DHM3, incisional biopsies were performed on representative lesions 6 and 20 days following drug injection. These samples were placed in 10% buffered formalin and processed for examination by standard light microscopy (Pathco Inc., Potomac, MD.).

[1] = Kinetic measurements of TM3 reactivity with anthracycline compounds in methanol solvent; conditions: reaction with TM3, 25° C.
Protocol: Kinetic measurements of TM3 reactivity
with anthracycline compounds at 25° C. in methanol solvent.

DOX-induced injury = conditions: cited from earlier work; for reduction of size of ulceration: animal models
[2] = Solubility of 7-deoxydaunorubicinone in the aqueous reaction medium; assay type: physicochemical; conditions: water, pH8
[3] = Kinetics of reaction of DHM3 with daunorubicin in water solvent; conditions: over the first 85 sec, water, 10° C., ten-fold excess DHM3
Protocol: A test similar to that described for the same reaction in methanol solvent (vide supra) was run. Oxomorpholinyl dimer DHM3 (1.38 mg, 4.37×10^-3 mmol) was dissolved in 0.5 ml of oxygen-free methanol and quickly transferred without delay into one compartment of the cell. The solvent was promptly removed under vacuum. Daunorubicin hydrochloride ([…]) was dissolved in 100 ml of an aqueous solution of Tris (24.2 mg) and Tris hydrochloride (31.6 mg) and 2.6 ml of this solution (4.18×10^-4 mmol of 6) was introduced into the other compartment of the cell. The sample was freeze-thaw degassed over three cycles as described above, sealed, and placed in a thermostatted cell holder at 10.0±0.1° C. for about 20 min prior to mixing. Full spectra between 320 and 800 nm were recorded every 10 sec for the first 125 sec, and then every 20 sec. From the absorbance change at 620 nm over the first 85 sec (50% reaction of daunorubicin), a non-linear least-squares treatment gave a first order rate constant for bond homolysis of DHM3 (k1) equal to 6×10^-4 sec^-1 and a first order rate constant for destruction of 7 (k2) equal to 2×10^-2 sec^-1. Treatment of the data obtained in the 164-225 sec interval gave k2 =2.8×10^-2 sec^-1.
Thus, when a ten-fold excess of DHM3 is reacted with an oxygen-free 2×10^-4 M solution of 6 in buffered water (pH8) at 10° C., the absorbance of the solution at 618-620 nm, due to the tautomer 7, reaches its maximum after 125 sec and then decreases quickly, with an 80% decrease in 100 sec. Here again the formation and destruction of 7, as calculated from the data obtained in the first 85 sec of reaction, follows consecutive first order kinetics, first order in DHM3 and 7, with k1 =6×10^-4 sec^-1, k2 =2×10^-2 sec^-1 and ε7 =9600. Calculation of k2 from the absorbance data taken after 165 sec of reaction time, when only first order destruction of 7 is observed, gives a value of 2.8×10^-2 sec^-1.

Compound: COc1cccc2c1C(=O)c1c(O)c3c(c(O)c1C2=O)C[C@@](O)(C(=O)CO)C[C@@H]3O[C@H]1C[C@H](N)[C@H](O)[C@H](C)O1 [DOX, doxorubicin]
dose dependence of skin ulceration size (swine skin; DOX 0.5 to 1.0 ml (2.0 mg/ml) i.d.): linearly dependent on the dose
start of ulcer formation following DOX (swine skin; DOX i.d.): 7 to 8 days
time to complete healing of ulcer (swine skin; DOX i.d.): ≤ 7 weeks
time to maximal ulcer size following DOX (swine skin; DOX i.d.): 3 weeks
microscopic appearance of lesions (swine skin; DOX i.d., biopsy): extensive coagulation-type necrosis of epidermis, dermis, and subcutaneous tissue, including muscle
RATE CONSTANT k2 [1]: 0.011 s⁻¹
ulcer following DOX, compared with present results (DOX-induced injury; 2 mg/site i.d., swine, Okano et al. 1983): smaller and more variable ulcer

Compound: CC(=O)C1(O)Cc2c(O)c3c(c(O)c2C(OC2CC(N)C(O)C(C)O2)C1)C(=O)c1ccccc1C3=O (stereo not shown) [4-DEMETHOXYDAUNORUBICIN, 4-demethoxydaunorubicin]
RATE CONSTANT k2 [1]: 0.009 s⁻¹

Compound: C[S+](C)[O-] [dimethyl sulfoxide]
reduction of size of ulceration (DOX-induced injury): purported to reduce the size of ulceration in some animal models but not in all
severity of DOX-induced injury (DOX-induced injury; swine model, Okano et al. 1983): appeared to ameliorate the severity of injury

Compound: CC[C@@]1(O)C[C@H](O[C@H]2C[C@H](N(C)C)[C@H](O[C@H]3C[C@H](O)[C@H](O[C@H]4CCC(=O)[C@H](C)O4)[C@H](C)O3)[C@H](C)O2)c2c(cc3c(c2O)C(=O)c2c(O)cccc2C3=O)[C@H]1C(=O)OC [ACLARUBICIN]
RATE CONSTANT k2 [1]: 0.0009 s⁻¹

solubility [2]: sparingly soluble
Compound: COc1cccc2c1C(=O)c1c(O)c3c(c(O)c1C2=O)CC(O)(C(C)=O)CC3 (stereo not shown) [compound 8, 7-deoxydaunorubicinone]

Compound: COc1cccc2c1C(=O)c1c(O)c3c(c(O)c1C2=O)C[C@@](O)(C(C)=O)C[C@@H]3O[C@H]1C[C@H](N)[C@H](O)[C@H](C)O1 [daunorubicin, reference compound]
RATE CONSTANT k2 [1]: 0.013 s⁻¹
reaction of daunorubicin [3]: 50%

Compound: Cc1c(C)c2c(c(C)c1O)CCC(C)(CCCC(C)CCCC(C)CCCC(C)C)O2 (stereo not drawn) [alpha-tocopherol]
reduction of size of ulceration (DOX-induced injury): purported to reduce the size of ulceration in some animal models but not in all

Compound: CO[C@@H]1C[C@](C)(O)Cc2cc3c(c(O)c21)C(=O)c1c(O)cc2c(c1C3=O)O[C@@H]1O[C@@]2(C)[C@H](O)[C@@H](N(C)C)[C@@H]1O [MENOGARIL]
RATE CONSTANT k2 [1]: 0.0025 s⁻¹
